This is an account of results in PubChem BioAssay (NCI).

Assay in all cases: growth of human tumour cells (NCI), 48 h
In assay [1] the test system is 786-0 renal.
Assay [2] has as its system CAKI-1 renal.
Assay [3] has as its system COLO 205 colon.
Assay [4] has as its system HOP-62 NSCLC.
Assay [5] relates to HS 578T breast.
In assay [6] the test system is K-562 leukemia.
Assay [7] deals with NCI-H460 lung.
Assay [8] concerns OVCAR-3 ovarian.
The subject of assay [9] is OVCAR-5 ovarian.
Assay [10] relates to PC-3 prostate.
Assay [11] relates to RPMI-8226 leukemia.
Assay [12] concerns SF-268 CNS.
For assay [13], the system named is SF-539 CNS.
Assay [14] concerns SK-OV-3 ovarian.
For assay [15], the system named is SN12C renal.
In assay [16] the test system is SNB-19 CNS.
The subject of assay [17] is U251 CNS.

SMILES strings stand for the structures.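 Test compounds were applied to cells in 96-well plates for 48 hours at 5 doses. TGI: total growth inhibition.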 Where only a bound is given, the exact number is not on record here.

For `Cc1cc(S(=O)(=O)Nc2n[nH]c(Nc3ccc(Cl)cc3)n2)c(S)cc1Cl`, the TGI in assay [1], in assay [2], in assay [3], in assay [4], in assay [5] and in assay [6] was more than 100 µM throughout. Also, the TGI in assay [7], in [8], in assay [9], in assay [10], in assay [11] and in assay [12] was more than 100 µM each time. Also, the TGI in assay [13], in assay [14], in assay [15], in assay [16] and in assay [17] was more than 100 µM throughout.
Regarding `N=C1OC(CN2CCN(c3ccccc3)CC2)CN1C(=S)Nc1ccccc1` (stereo unspecified), the TGI in assay [1], in assay [2], in assay [3], in assay [4], in assay [5] and in assay [6] was more than 100 µM in each case. Besides, the TGI in assay [7], in assay [8], in [9], in assay [10], in assay [11] and in [12] was more than 100 µM each time. In addition, the TGI in assay [13], in [14], in [15], in assay [16] and in assay [17] was more than 100 µM each time.
As for `COC(=O)/C(C#N)=C(\Nc1ccccc1)N1CCOCC1`, the TGI in assay [1], in [2], in assay [3], in assay [4], in [5] and in [6] was more than 100 µM throughout. Besides, the TGI in [7], in assay [8], in assay [9], in [10], in [11] and in assay [12] was more than 100 µM throughout. Also, the TGI in assay [13], in assay [14], in [15], in assay [16] and in assay [17] was more than 100 µM each time.
As for `O=c1[nH]c2ccccc2c(=O)n1/N=C/c1ccc(O)cc1`, the TGI in assay [1] is more than 100 µM; in assay [2], more than 100 µM; in [3], more than 100 µM; in assay [4], 48 µM; in assay [5] it was 74.6 µM; in [6], more than 100 µM. In addition, the TGI in assay [7], in [8], in assay [9], in [10], in assay [11] and in assay [12] was more than 100 µM in each case. The TGI in assay [13], in assay [14], in assay [15], in assay [16] and in assay [17] was more than 100 µM in each case.
As to `CN(C)c1ccc(C=Nc2ccc(-c3nc4ccccc4[nH]3)cc2)cc1`, the TGI in assay [1], in assay [2], in assay [3], in assay [4], in [5] and in assay [6] was more than 100 µM each time. The TGI in assay [7], in assay [8], in assay [9], in assay [10], in assay [11] and in assay [12] was more than 100 µM in each case. In addition, the TGI in [13], in assay [14], in assay [15], in [16] and in assay [17] was more than 100 µM throughout.
On to `CC(ON(C(c1ccccc1)C(C)C)C(C)(C)C)c1ccccc1` (stereo unspecified), for which the TGI was found to be 30.7 µM in [1]; 55.7 µM in assay [2]; 32.5 µM in [3]; 38.9 µM in assay [4]; 64.1 µM in assay [5]; 49.8 µM in [6]. The TGI is 39.1 µM in [7]; 30 µM in assay [8]; 29.8 µM in assay [9]; 94 µM in [10]; 73.7 µM in [11]; 52.2 µM in [12]. For the same compound, the TGI was 43.7 µM in assay [13]; more than 100 µM in assay [14]; 32.5 µM in assay [15]; 35.9 µM in assay [16]; 30.9 µM in assay [17].
Consider `O=C1C[C@H](c2ccccc2)O[C@@H](c2ccccc2)C1`, for which the TGI is more than 100 µM in assay [1]; more than 100 µM in assay [2]; more than 100 µM in assay [3]; more than 100 µM in assay [4]; more than 100 µM in assay [5]; 72.3 µM in assay [6]. For the same compound, the TGI in assay [7], in assay [8], in assay [9], in [10], in assay [11] and in assay [12] was more than 100 µM in each case. Besides, the TGI in assay [13], in assay [14], in assay [15], in [16] and in [17] was more than 100 µM in each case.
For the compound `CC(=O)Nc1ccc(NCC(=O)Nn2cnc3ccc(S(=O)(=O)Nc4ccc(NC(C)=O)cc4)cc3c2=O)cc1`, the TGI in [1], in assay [2], in assay [3], in assay [4], in [5] and in [6] was more than 100 µM each time. Further, the TGI in assay [7], in assay [8], in assay [9], in [10], in assay [11] and in assay [12] was more than 100 µM each time. In addition, the TGI in assay [13], in [14], in assay [15], in assay [16] and in assay [17] was more than 100 µM throughout.
